The results in this text go back to patent publication US9012481B2, “Benzoarylureido compounds, and composition for prevention or treatment of neurodegenerative brain disease containing the same” (Korea Institute of Science and Technology, priority 2009, dated 2015).

One assay relates to BV-2 cells. The experiment in a line: Microscope analysis of cell shape, beta-amyloid treated BV-2 cells. Type of assay: cell-based. The following applies: 50 nM KHG25967 for 24 hours after 50 μM beta-amyloid for 2 hours. As to the method: BV-2 microglia cells (allotted from Pharmacology Division of Ajou University) were cultivated in DMEM (Dulbecco's Modified Eagle's Medium) supplemented with 5% fetal bovine serum (Invitrogen, Carlsbad, Calif., USA), sou/Ml penicillin (Invitrogen, Carlsbad, Calif., USA), and 50 μg/Ml streptomycin (Invitrogen, Carlsbad, Calif., USA) under the atmosphere condition with 5% CO2 and 95% air at 37° C. The medium was replaced once a day, the cells were plate-cultured in a density according to the scale of each experiment.
BV-2 cells were pre-treated with 50 μM of beta-amyloid, and 50 nM of KHG25967 compound was added to the beta-amyloid treated cells for 24 hours. For microscope analysis, BV-2 cells were used in 6-well plate at the density of 5×10^5 cells/well, for MTT analysis, BV-2 cells were used in 96-well plate at the density of 5×10^4 cells/well.
The obtained prevention effects of KHG25967 compound on toxicity induced by beta-amyloid in BV-2 cells were FIGS. 1A and 1b.

The test system of another assay is phospho-ERK1. Kind of assay: Immunoblotting of phospho-ERK1 in beta-amyloid stimulated BV-2 cell culture. Type of assay: cell-based. The protocol: (§1) The beta-amyloid treated cells (6-well of 5×10^5 cells/3 Ml, allotted from Pharmacology Division of Ajou University) were collected, and washed with phosphate-buffered saline (PBS). After centrifugation, the cells were dissolved in 0.1 ml of RIPA buffer (containing 150 mM NaCl, 1% NP-40, 0.5% sodium deoxycholate, 0.1% SDS, 50 mM Tris-HCl, pH 7.4, 50 mM glyycerophosphate, 20 mM NaF, 20 mM EGTA, 1 mM DTT, 1 mM Na3VO4, and protease inhibitor) at 4° C. for 15 minutes by strong shaking. The cells were cultivated in ice for 10 minutes, the lysate was centrifuged at 14,000 rpm for 5 minutes. 20 μg of a protein obtained from the cell lysate was heated, and then, electrophoresed on 12% polyacrylamide gel under reduction condition. The cells were incubated in blocking buffer (20 mM Tris, pH 7.4-buffer saline containing 0.1% tween 20 containing 5% lipid-free dried milk) for 1 hour, to suppress non-specific binding. […]
(§2) To examine the effect of compound KHG25967 on phosphorylation of ERK (extracellular signal-regulated kinase) and expression of caspase 3 by beta-amyloid, a possible protein expression of ERK1/2 (extracellular signal-regulated kinase 1 & 2) and caspase 3 in BV-2cell culture stimulated with beta-amyloid were measured. […]

Another assay has as its system phospho-ERK2. The experiment in a line: Immunoblotting of phospho-ERK2 in beta-amyloid stimulated BV-2 cell culture. The class given is cell-based. The following applies: beta-amyloid together with KHG25967 (50 nM) compared to beta-amyloid only. As to the method: as §1, §2
On the technique in general: A western blot detects proteins with antibodies after separation by electrophoresis.

The subject of the next assay is caspase 3. The experiment in a line: Immunoblotting of cleaved caspase 3 in beta-amyloid stimulated BV-2 cell culture. Type of assay: cell-based. The following applies: beta-amyloid together with KHG25967 (50 nM) compared to beta-amyloid only. The protocol:
as §1, with “condition.” for “condition. The cells were incubated in blocking buffer (20 mM Tris, pH 7.4-buffer saline containing 0.1% tween 20 containing 5% lipid-free dried milk) for 1 hour, to suppress non-specific binding.”
To examine the effect of compound KHG25967 on phosphorylation of ERK (extracellular signal-regulated kinase) and expression of caspase 3 by beta-amyloid, a possible protein expression of ERK1/2 (extracellular signal-regulated kinase 1 & 2) and caspase 3 in BV-2cell culture stimulated with beta-amyloid were measured.
The activity of caspase 3 was measured as a cleavage at aspartic acid and serine by a stimulation, which is measured using anti-cleavage-caspase 3 antibody (Cell Signaling Technology Inc, Beverly, Mass., USA) through immunoblotting analysis. […]

In assay [1] the test system is tumor necrosis factor-alpha. The experiment in a line: ELISA of tumor necrosis factor-alpha in LPS-treated BV-2 cells. The following applies: LPS 1 μg/ml for 2 hours, then 50 nM KHG25967 for 6 hours; compared to LPS only as 100%. Type of assay: cell-based. The protocol: Lipopolysaccharide (LPS)-treated cells (6-well of 5×10^5 cells/3 Ml, Fluka, Sigma-Aldrich, St. Louis, Mo., USA) were collected, and washed with phosphate-buffered saline (PBS). The cells were centrifuged, and then dissolved in pro-prep lysis buffer at 4° C. Interleukin-1 beta and tumor necrosis factor-alpha in the cell lysis solution wherein the cells were dissolved were measured by enzyme-linked immunosorbent analysis plate (R&D systems inc, Minneapolis, Minn., USA). The absorbance at 450 nm was measured using microplate reader. In addition, cytokine was measured using a cytokine measuring system (R&D systems inc, Minneapolis, Minn., USA).
BV-2 cells were pre-treated with 1 μg/ml of LPS (Fluka, Sigma-Aldrich, St. Louis, Mo., USA) for 2 hours, and then, further treated with 50 nM KHG25967 for 6 hours. The changed amounts of cytokines of tumor necrosis factor-alpha and interleukin-1beta were measured from lysate solution where the cells were dissolved in cell lysate solution (Intron Biotechnology, Seoul, Korea).
Background: ELISA stands for enzyme-linked immunosorbent assay.

A further assay concerns interleukin-1beta. Kind of assay: LPS-induced interleukin-1beta in brain and serum of C57BL/6 mice. Conditions: oral KHG25967 10 mg/kg or 20 mg/kg every day for 2 weeks, then LPS 10 mg/kg into brain, 6 hours. Type of assay: in vivo. As to the method:
(§3) The animal experiment was performed using C57BL/6 mice ([…], 12-14 weeks old, Harlan Sprague Dawley inc, Indianapolis, Ind., USA) by stereotaxis. The intracerebroventricular (ICV) injection was according to the intracerebroventricular injection system described in Craft et al., 2004b. The mice were grown in an accommodation for SPF (specific pathogen free) under 12 hours light/12 hours dark repeat, and supplied with water and feed as recommended by the accommodation for SPF. The study was reviewed and approved by the Institutional Animal Care and Use Committee (IACUC) of Asan Institute for Life Sciences, Asan Medical Center, which abides by the Institute of Laboratory Animal Resources (ILAR) guide.
(§4) The effect of KHG25967 on the change of pro-inflammatory cytokines was examined in vivo using 12-14 week old C57BL/6 mice. The control group was administered with PBS only for 2 weeks and then, further treated with PBS for 6 hours. The LPS group was administered with PBS only for 2 weeks and then, 10 mg/kg of LPS was administered into brain using streotaxis. The KHG25967 treated group was administered with 10 mg/kg or 20 mg/kg of KHG25967 every day for 2 weeks, and then, 10 mg/kg of LPS was administered into brain using streotaxis. […] The changes in the level of pro-inflammatory cytokines (interleukin-1beta and tumor necrosis factor-alpha) in the separated blood and brain were measured.

The test system of assay [2] is tumor necrosis factor-alpha. The experiment in a line: LPS-induced tumor necrosis factor-alpha in brain and serum of C57BL/6 mice. The class given is in vivo. The following applies: oral KHG25967 10 mg/kg or 20 mg/kg every day for 2 weeks, then LPS 10 mg/kg into brain, 6 hours. The protocol: as §3, §4

Take `O=C(O)CNC(=O)Nc1nc2ccccc2s1` [KHG25967, 2-(3-benzo[d]thiazole-2-ylureido)acetic acid]: in the assay on BV-2 cells, the “morphological characteristics of damaged cells (FIG. 1A)” value is “alleviated”. In the assay with phospho-ERK1 (beta-amyloid together with KHG25967 (50 nM) compared to beta-amyloid only), the “reduction of expression level of phospho-ERK1 (FIG. 2B)” value is recorded as 90%. The “increase of phospho-ERK1/2 (Western blot, FIG. 2A)” value in the assay on phospho-ERK1 (culture treated with beta-amyloid in the presence of 50 nM KHG25967) is listed as “considerably weakened”. Also, the “reduction of expression level of phospho-ERK2 (FIG. 2B)” value in the assay on phospho-ERK2 was found to be 70%. Besides, the “reduction of expression level of cleavage-caspase 3 (FIG. 2C)” value with caspase 3 stood at 93%. For the same compound, in assay [1], the “suppression of tumor necrosis factor-alpha level (FIG. 3B)” value was 61%. Further, the “level of interleukin-1beta in blood (serum, FIG. 4C)” value in the assay with interleukin-1beta was “no specific difference”. For the same compound, in the assay with interleukin-1beta (compared with LPS only as 100%), the “decrease of interleukin-1beta level in brain (FIG. 4A)” value came to 55%. For the same compound, in assay [2], the “level of tumor necrosis factor-alpha in blood (serum, FIG. 4D)” value is “no specific difference”. Besides, the “decrease of tumor necrosis factor-alpha level in brain (FIG. 4B)” value in assay [2] (compared with LPS only as 100%) was 42%.
